Structures can show the parent of a compound that is named as a salt.
Tests used:
L6-myotubes [1] = test: Measurement of intracellular cAMP levels (alpha screen cAMP kit) in differentiated cells, compared to isoproterenol; assay type: cell-based; settings: 0.25 h, compound at 10 μM vs isoproterenol at 10 μM, 15 min stimulation, read-out: Biological example 2: intracellular cAMP level activity compared to that of isoproterenol
Method in brief: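 Rat L6 myoblasts differentiated to myotubes over 7 days in 2% FBS, serum-starved overnight, then stimulated 15 min with agonist at 1×10^−5 M final in HBSS with 1 mM IBMX, pH 7.4. cAMP measured by AlphaScreen after ethanol extraction and lysis; activity expressed relative to isoproterenol.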

L6-myotubes [2] = test: Glucose uptake (3H-2-deoxyglucose) in differentiated L6-myotubes, compared to isoproterenol; assay type: cell-based; settings: compound at 10 μM vs isoproterenol at 10 μM, read-out: Biological example 1: glucose uptake activity compared to that of isoproterenol
Method in brief: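 Differentiated L6 myotubes, serum-starved overnight in 0.5% fatty-acid-free BSA, were pretreated 1 h 40 min with agonist at 1×10^−5 M final, then re-dosed in glucose-free medium for 20 min. Uptake of 50 nM 3H-2-deoxyglucose over 10 min was read by scintillation counting and compared with isoproterenol.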

| Compound | Emax at 10 µM (L6-myotubes [1]) [%] | Emax at 10 µM (L6-myotubes [2]) [%] |
| --- | --- | --- |
| CC(=O)N1CCC(CC(C)(C)NC[C@H](O)c2cncc(F)c2)CC1 [Example 34, (R)-1-(4-(2-((2-(5-fluoropyridin-3-yl)-2-hydroxyethyl)amino)-2-methylpropyl)piperidin-1-yl)ethan-1-one dihydrochloride] | < 25 | 50 to 75 |
| CNC(=O)N1CCC[C@@H](CC(C)(C)NC[C@H](O)c2cncc(F)c2)C1 [Example 19, (S)-3-(2-(((R)-2-(5-Fluoropyridin-3-yl)-2-hydroxyethyl)amino)-2-methylpropyl)-N-methylpiperidine-1-carboxamide dihydrochloride] | 50 to 75 | > 75 |
| CC(C)(C[C@H]1CCCN(S(C)(=O)=O)C1)NC[C@H](O)c1cncc(F)c1 [Example 27, (R)-1-(5-Fluoropyridin-3-yl)-2-((2-methyl-1-((R)-1-(methylsulfonyl)-piperidin-3-yl)propan-2-yl)amino)ethan-1-ol dihydrochloride] | < 25 | 50 to 75 |
| CC(C)(C[C@@H]1CCCNC1)NC[C@H](O)c1cncc(F)c1 [Example 12, (R)-1-(5-Fluoropyridin-3-yl)-2-((2-methyl-1-((S)-piperidin-3-yl)-propan-2-yl)amino)ethan-1-ol] | < 25 | > 75 |
| CN1CCC[C@@H](CC(C)(C)NC[C@H](O)c2cccc(F)c2)C1 [Example 10, (R)-1-(3-Fluorophenyl)-2-((2-methyl-1-((S)-1-methylpiperidin-3-yl)-propan-2-yl)amino)ethan-1-ol] | < 25 | > 75 |
| CNC(=O)N1CCC(CC(C)(C)NC[C@H](O)c2cncc(F)c2)CC1 [Example 51, (R)-4-(2-((2-(5-Fluoropyridin-3-yl)-2-hydroxyethyl)amino)-2-methyl-propyl)-N-methylpiperidine-1-carboxamide dihydrochloride] | < 25 | 50 to 75 |
| CC(C)(CC1CCN(S(C)(=O)=O)CC1)NC[C@H](O)c1cccc(F)c1 [Example 31, (R)-1-(3-Fluorophenyl)-2-((2-methyl-1-(1-(methylsulfonyl)piperidin-4-yl)propan-2-yl)amino)ethan-1-ol hydrochloride] | < 25 | 50 to 75 |
| CC(C)(C[C@@H]1CCCN(C(=O)C(C)(C)C)C1)NC[C@H](O)c1cncc(F)c1 [Example 15, 1-((S)-3-(2-(((R)-2-(5-Fluoropyridin-3-yl)-2-hydroxyethyl)amino)-2-methylpropyl)piperidin-1-yl)-2,2-dimethylpropan-1-one] | < 25 | > 75 |
| CN(C)C(=O)N1CCC(CC(C)(C)NC[C@H](O)c2cccc(F)c2)CC1 [Example 44, (R)-4-(2-((2-(3-Fluorophenyl)-2-hydroxyethyl)amino)-2-methyl-propyl)-N,N-dimethylpiperidine-1-carboxamide hydrochloride] | 50 to 75 | > 75 |
| CC(C)(C[C@@H]1CCCN(C(=O)C(F)(F)F)C1)NC[C@H](O)c1cncc(F)c1 [Example 16, 2,2,2-Trifluoro-1-((S)-3-(2-(((R)-2-(5-fluoropyridin-3-yl)-2-hydroxy-ethyl)amino)-2-methylpropyl)piperidin-1-yl)ethan-1-one] | < 25 | > 75 |
| CC(=O)N1CCC[C@H](CC(C)(C)NC[C@H](O)c2cncc(F)c2)C1 [Example 26, 1-((R)-3-(2-(((R)-2-(5-Fluoropyridin-3-yl)-2-hydroxyethyl)amino)-2-methylpropyl)piperidin-1-yl)ethan-1-one dihydrochloride] | < 25 | 50 to 75 |
| CC(C)(C[C@@H]1CCCN(S(C)(=O)=O)C1)NC[C@H](O)c1cccc(F)c1 [Example 4, (R)-1-(3-Fluorophenyl)-2-((2-methyl-1-((S)-1-(methylsulfonyl)-piperidin-3-yl)propan-2-yl)amino)ethan-1-ol hydrochloride] | 25 to 50 | 50 to 75 |
| CC(C)(C[C@H]1CCNC(=O)C1)NC[C@H](O)c1cncc(F)c1 [Example 54, (R)-4-(2-(((R)-2-(5-Fluoropyridin-3-yl)-2-hydroxyethyl)amino)-2-methylpropyl)piperidin-2-one] | < 25 | 50 to 75 |
| COC(=O)N1CCC[C@@H](CC(C)(C)NC[C@H](O)c2cccc(F)c2)C1 [Example 7, Methyl (S)-3-(2-(((R)-2-(3-fluorophenyl)-2-hydroxyethyl)amino)-2-methylpropyl)piperidine-1-carboxylate] | 50 to 75 | > 75 |
| CC(C)(C[C@H]1CCN(C(=O)OC(C)(C)C)C1)NC[C@H](O)c1cccc(F)c1 [Example 56, tert-Butyl (R)-3-(2-(((R)-2-(3-fluorophenyl)-2-hydroxyethyl)amino)-2-methylpropyl)pyrrolidine-1-carboxylate] | < 25 | 50 to 75 |
| CC(C)(C[C@H]1CCN(S(C)(=O)=O)C1)NC[C@H](O)c1cccc(F)c1 [Example 59, (R)-1-(3-Fluorophenyl)-2-((2-methyl-1-((R)-1-(methylsulfonyl)-pyrrolidin-3-yl)propan-2-yl)amino)ethan-1-ol] | < 25 | > 75 |
| CC(C)(C[C@H]1CCCN(C(=O)OC(C)(C)C)C1)NC[C@H](O)c1cccc(F)c1 [Example 39, tert-Butyl (R)-3-(2-(((R)-2-(3-fluorophenyl)-2-hydroxyethyl)amino)-2-methylpropyl)piperidine-1-carboxylate] | 25 to 50 | 50 to 75 |
| CC(C)(C[C@H]1CCNC(=O)C1)NC[C@H](O)c1cccc(F)c1 [Example 52, (R)-4-(2-(((R)-2-(3-Fluorophenyl)-2-hydroxyethyl)amino)-2-methyl-propyl)piperidin-2-one] | < 25 | 50 to 75 |

— patent publication US20260242335A1, “HETEROCYCLOALKYL BETA-HYDROXY ALKYL AMINES FOR USE IN THE TREATMENT OF HYPERGLYCAEMIA AND DISORDERS CHARACTERISED BY HYPERGLYCAEMIA” (ATROGI AB, priority 2023, published 2026)
